The subject of data set [1] is Human papillomavirus type 16. In words: Antiviral activity against HPV-16 infected in Caski cells assessed as inhibition of viral replication after 7 days. The class given is functional, Human papillomavirus 16.
For data set [2], the system named is Human immunodeficiency virus 1. The settings on record: Human immunodeficiency virus 1, 3B.
Data set [3] has as its system Coxsackievirus. In words: Antiviral activity against Coxsackie B3 infected in african green monkey Vero cells assessed as inhibition of viral replication. Type of data set: functional, organism-based.
For data set [4], the system named is Influenza B virus. In words: Antiviral activity against influenza B virus infected in MDCK cells assessed as inhibition of viral replication. Type of data set: functional, organism-based.
The test system of data set [5] is Feline coronavirus. In words: Antiviral activity against Feline coronavirus infected in CRFK assessed as inhibition of viral replication. The class given is functional, organism-based. Conditions: Alphacoronavirus 1, CRFK.
Data set [6] deals with Human respiratory syncytial virus. In words: Antiviral activity against RSV infected in human HeLa cells assessed as inhibition of viral replication.
Data set [7] has as its system Vaccinia virus. In words: Antiviral activity against Vaccinia virus infected in human embryonic lung cells assessed as reduction in viral yield measured after 3 days. Type of data set: functional, organism-based. Conditions: Orthopoxvirus vaccinia, 72 h.
The subject of data set [8] is SARS-CoV. In words: Antiviral activity against SARS coronavirus infected in african green monkey Vero cells assessed as inhibition of viral replication. Type of data set: functional, organism-based. The settings on record: Severe acute respiratory syndrome-related coronavirus.
For data set [9], the system named is Human alphaherpesvirus 1. In words: Antiviral activity against Herpes simplex virus 1 McIntyre infected in human embryonic lung cells assessed as inhibition of viral replication. Type of data set: functional, organism-based. The settings on record: Human alphaherpesvirus 1, McIntyre.
Data set [10] deals with Influenza A virus. In words: Antiviral activity against Influenza A virus H3N2 infected in MDCK cells assessed as inhibition of viral replication. Type of data set: functional, organism-based.
In data set [11] the test system is Human immunodeficiency virus 1. In words: microbe, parasite or virus in culture. The settings on record: Human immunodeficiency virus 1, 3B, MT4.
Data set [12] relates to Rattus norvegicus. Put plainly: Immunosuppressive activity in Sprague-Dawley rat […] model assessed as percent T lymphocytes at 10 mg/kg, po administered once daily for 28 days by flow cytometry. The class given is functional. On the technique in general: A flow cytometer gives signals particle by particle.
Data set [13] concerns Human immunodeficiency virus 1. In words: microbe, parasite or virus in culture. Conditions: Human immunodeficiency virus 1, SF2.
In data set [14] the test system is Human alphaherpesvirus 3. In words: Antiviral activity against VZV OKA infected in human embryonic lung cells assessed as inhibition of. The class given is functional, organism-based. The settings on record: Human alphaherpesvirus 3, OKA.
The subject of data set [15] is Yellow fever virus. In words: Antiviral activity against Yellow fever virus 17D infected in african green monkey Vero cells assessed as inhibition of viral replication. The class given is functional, cell-based.
Data set [16] concerns Human betaherpesvirus 5. In words: Antiviral activity against Human cytomegalovirus Davis infected in human embryonic lung cells assessed as reduction in viral yield. The class given is functional, organism-based. Conditions: Human betaherpesvirus 5, Davis.
The subject of data set [17] is Human alphaherpesvirus 2. Put plainly: Antiviral activity against Herpes simplex virus 2 G infected in human embryonic lung cells assessed as inhibition of viral replication. The class given is functional, organism-based. The settings on record: Human alphaherpesvirus 2, strain G.
The subject of data set [18] is Human alphaherpesvirus 1. In words: Antiviral activity against Herpes simplex virus 1 KOS infected in human embryonic lung cells assessed as inhibition of viral replication. Type of data set: functional, organism-based. Conditions: Human alphaherpesvirus 1, KOS.
In data set [19] the test system is Human papillomavirus type 16. In words: Antiviral activity against HPV-16 infected in Caski cells assessed as inhibition of viral replication after 3 days. The class given is functional, organism-based, Human papillomavirus 16. Conditions: Human papillomavirus 16, Ca-Ski, 72 h.
In data set [20] the test system is Rattus norvegicus. In words: Immunosuppressive activity in Sprague-Dawley rat KHL model assessed as percent cytotoxic T cells at 10 mg/kg, po administered once daily for 28 days by flow cytometry. Type of data set: functional, T-cell.
Data set [21] concerns Influenza A virus. Put plainly: Antiviral activity against Influenza A virus H1N1 infected in MDCK cells assessed as inhibition of viral replication. The class given is functional, organism-based.
In data set [22] the test system is Vesicular stomatitis virus. In words: Antiviral activity against VSV infected in human embryonic lung cells assessed as inhibition of viral replication. Type of data set: functional, organism-based.
The subject of data set [23] is Bovine viral diarrhea virus 1. In words: Antiviral activity against BVDV infected in […] cells assessed as inhibition of viral replication. The class given is functional, organism-based. The settings on record: Bovine viral diarrhea virus isolates and strains.
Data set [24] concerns Human alphaherpesvirus 2. Put plainly: Antiviral activity against Herpes simplex virus 2 Lyons infected in human embryonic lung cells assessed as inhibition of viral replication. The settings on record: Human alphaherpesvirus 2, Lyons. The class given is functional, organism-based.
Data set [25] relates to Human betaherpesvirus 5. In words: Antiviral activity against Human cytomegalovirus AD169 infected in human embryonic lung cells assessed as reduction in viral yield. The class given is functional, organism-based. Conditions: Human betaherpesvirus 5, AD169, lung.
Data set [26] concerns Human alphaherpesvirus 1. Put plainly: Antiviral activity against Herpes simplex virus 1 F infected in human embryonic lung cells assessed as inhibition of viral replication. Type of data set: functional, organism-based. Conditions: Human alphaherpesvirus 1, strain F.
Data set [27] deals with Human alphaherpesvirus 2. Put plainly: Antiviral activity against Herpes simplex virus 2 196 infected in human embryonic lung cells assessed as inhibition of viral replication. The class given is functional, organism-based. The settings on record: Human alphaherpesvirus 2, 196, lung.
Data set [28] concerns Hepatitis C virus. Put plainly: Antiviral activity against HCV infected in human Huh 5.2 cells assessed as reduction in viral RNA level by luciferase reporter gene assay. Type of data set: functional, organism-based, Hepacivirus hominis. The settings on record: Huh-5-2. A general note: Reporter assays use an easily measured gene product as a stand-in for the process of interest.

The subject of data set [29] is Rattus norvegicus. In words: Immunosuppressive activity in Sprague-Dawley rat […] model assessed as percent T-helper cells at 10 mg/kg, po administered once daily for 28 days by flow cytometry. The class given is functional.
Data set [30] deals with Rattus norvegicus. Put plainly: Immunosuppressive activity in Sprague-Dawley rat […] model assessed as IgM level at 10 mg/kg, po administered once daily for 28 days by ELISA. Type of data set: functional. For orientation: An ELISA detects its analyte on a solid surface through an enzyme-linked reagent.
The test system of data set [31] is Jurkat. In words: Immunosuppressive activity in human Jurkat cells assessed as inhibition of PHA-phorbol myristate acetate induced beta-galactosidase activity at 6.75 uM. The class given is functional, cell-based.
Data set [32] deals with PBMC. In words: Cytotoxicity against human PBMC at 0.83 uM by MTT assay. The class given is cell-based.
In data set [33] the test system is MT4. Put plainly: Cytotoxicity against human MT4 cells at 0.83 uM by MTT assay. Type of data set: cell-based. Conditions: mt4, 0.83 µM.

Each structure is given as a SMILES string. Activity calls are given as the source filed them. No cut-off for these calls is given here.

For the compound `C/C=C/C[C@@H](C)[C@@H](O)[C@H]1C(=O)N[C@@H](CC)C(=O)N(C)CC(=O)N(C)[C@@H](CC(C)C)C(=O)N[C@@H](C(C)C)C(=O)N(C)[C@@H](CC(C)C)C(=O)N[C@@H](C)C(=O)N[C@H](C)C(=O)N(C)[C@@H](CC(C)C)C(=O)N(C)[C@@H](CC(C)C)C(=O)N(C)[C@@H](C(C)C)C(=O)N1C` [CYCLOSPORINE], the TC50 in [1] was found to be 0.3 µM. Besides, the IC50 in data set [2] is 0.45 µM; in [3], more than 25 µM; in data set [4], more than 14.8 µM; in [5], 1.5 µM; in data set [6], more than 8.3 µM; in data set [7], more than 8.3 µM. In addition, the IC50 in data set [8] was more than 8.3 µM; in [9], more than 8.3 µM; in data set [10], more than 14.8 µM; in data set [11] it was more than 0.83 µM; in data set [13] it was 0.54 µM; in data set [14] it was 3.3 µM. For the same compound, the IC50 in data set [15] is more than 16.6 µM; in data set [16], more than 18.3 µM; in [17], more than 8.3 µM; in data set [18], more than 8.3 µM; in data set [19] it was 0.4 µM; in data set [21], more than 14.8 µM. For the same compound, the half-inhibitory concentration (IC50) was more than 8.3 µM in data set [22]; more than 9.9 µM in data set [23]; more than 8.3 µM in data set [24]; more than 18.3 µM in data set [25]; more than 8.3 µM in data set [26]; more than 8.3 µM in [27]. Also, the IC50 in [28] came to 2.3 µM. The Activity is listed as 33.6% in [12], 9.2% in [20] and 23.1% in data set [29]. Also, the deltaA in [30] is listed as 0.18.
As for `C/C=C/C[C@@H](C)[C@@H](O)[C@H]1C(=O)N[C@@H](CC)C(=O)N(C)CC(=O)N(C)[C@@H]([C@@H](C)CC)C(=O)N[C@@H](C(C)C)C(=O)N(C)[C@@H](CC(C)C)C(=O)N[C@@H](C)C(=O)N[C@H](C)C(=O)N(C)[C@@H](CC(C)C)C(=O)N(C)[C@@H](CC(C)C)C(=O)N(C)[C@@H](C(C)C)C(=O)N1C` [NIM811], the figures for the IC50 in data set [2], in data set [11] and in [13] were 0.47 µM, 0.31 µM and 0.5 µM, respectively. Further, the inhibition result in [31] was “Active”. Also, the Activity result in data set [32] and in data set [33] was “Non-toxic” throughout.

In general, IC50 refers to the point on the concentration scale where inhibition reaches its midpoint.

The values are drawn from ChEMBL document CHEMBL1687706, “Inhibition of human immunodeficiency virus type 1 replication in human cells by Debio-025, a novel cyclophilin binding agent” (Antimicrob Agents Chemother, 2008).
